Assay results taken from patent US6479487B1, “6, 9-disubstituted 2-[trans-(4-aminocyclohexyl)amino] purines” (Aventis Pharmaceuticals Inc., priority 1998, dated 2002).
Values joined by “and” are separate entries in the source; they are usually repeats but may differ in a detail not shown here. Equal entries are not always repeated. Structures can show the parent of a compound that is named as a salt. Where two headings read alike, the source gives them in different places.

Legend:
cdk2/cyclin E = molecular target: T1, cdk2/cyclin E (Homo sapiens, UniProt P24941); test: Cyclin-Dependent Kinase 2 Assay (cdk2/cyclin E, GST-Rb substrate); type: biochemical; conditions: recombinant cdk2/cyclin E, 10 μM ATP, 30 min at 30° C., several values in a cell = separate determinations, read-out: CDK-2 Inhibition IC50
T1 construct: made in house; host or cells: insect cells (baculovirus co-infection)
Experimental: Substrate: GST-Rb as described above for cdk4/cyclin D1
Assay conditions for cdk2/cyclin E were identical to those for cdk4/cyclin D1 including the substrate. The concentration of recombinant cdk2/cyclin E in the assay was 0.1 μg per 100 μl assay. Incubation was for 30 min at 30° C.

cdk4/cyclin D1 = molecular target: T2, cdk4/cyclin D1 (Homo sapiens, UniProt P11802); test: Cyclin-dependent Kinase 4 Assay (cdk4/cyclin D1, GST-Rb substrate); type: biochemical; conditions: cdk4/cyclin D1 insect cell lysate, 10 μM ATP, 30 min at 37° C., several values = separate determinations, read-out: CDK4 Inhibition IC50
T2 construct: made in house; host or cells: Sf9 insect cells (Bac-to-Bac baculovirus, pFastBac)
Experimental: The IC50 values for cdk4 inhibition were by the following method:
The transformed bacteria were grown overnight to saturation, then diluted in YT broth and incubated at 37° C. for 2 h. The protein was induced by incubation with 0.1 mM isopropylthioglycoside for 3 h. Following sedimentation by centrifugation, the cells were lysed by sonication in STE buffer ([…] NaCl, 10 mM Tris, pH 8.0, 1 mM EDTA) containing 10% sarkosyl. Particulate matter was removed by centrifugation and the lysate was incubated with glutathione-Sepharose at 4° C. The beads were washed with kinase buffer and then quantitation of Coomassie blue-stained proteins separated by SDS-PAGE was performed using a protein standard of known concentration.
The cDNA for human cyclin D1 was cloned by RT PCR using […] from MCF-7 cells. […] Bacmid DNA was used to transfect Sf9 insect cells to produce recombinant virus. Following plaque purification of the virus, the viral preparations were amplified until high titer stocks were acheived.
Lysates were prepared by lysis of Sf9 cells coinfected with cdk4 and cyclin D1 in 50 mM HEPES, pH 7.5, 10 mM MgCl2, 1 mM DTT, 0.1 mM phenylmethylsulfonyl fluoride, 5 μg/ml aprotinin, and 5 μg/ml leupeptin using a PARR bomb under 500 p.s.i nitrogen pressure for 5 min at 4° C. Insoluble material was sedimented at 10,000×g for 20 min at 4° C. Glycerol was added to the supernatant to 10% and stored at −80° C. in aliquots.
Pre-wet Millipore Multiscreen 96-well filter plates (0.65 μm Durapore filters) with 200 μl kinase buffer (50 mM HEPES, pH 7.5, 10 mM MgCl2, 1 mM EGTA). GST-Rb (0.5 μg) bound to glutathione-Sepharose beads is added in 50 μl per well and the solution removed by application of vacuum. […] Add 0.1 μg cdk4/cyclin D1 (insect cell lysate) to initiate assay. Incubate 30 min at 37° C. Terminate reaction by filtration on Millipore Vacuum Manifold. Wash four times with TNEN (20 mM Tris, pH 8.0, 100 mM Na Cl, 1 mM EDTA, 0.5% nonidet P-40). After drying the plates at room temperature, the filter plates were placed in adapter plates (Packard) and 40 μl of Microscint-O® (Packard) was added to each well. Top Seal A film was used to cover the plates before counting in a Top Count Scintillation Counter.

MDA-MB-231 = test: In vitro tumor cell proliferation, MDA-MB-231; type: cell-based, human; conditions: sulforhodamine B or CyQUANT assay, many values given with an undefined *, read-out: In vitro Tumor Cell Proliferation (IC50, μM) Breast MDA-MB-231
Experimental: (§1) The proliferation of tumor cells was measured using a sulforhodamine B assay as described in Skehan, P., et al., J. Natl. Cancer Inst. […] Tumor cells were harvested with trypsin-EDTA, cells that excluded trypan blue were counted, added to 96-well plates and incubated overnight at 37° C. Drug was added to the wells following dilution in culture medium. Three days later, the medium was removed and replenished with medium containing fresh drug and incubated an additional 4 days. The cells were then fixed with 0.1 ml 10% trichloroacetic acid for 60 min at 4° C. The plates were rinsed five times with tap water, air-dried and stained for 30 min with 0.4% sulforhodamine B in 1% acetic acid and air-dried.
(§2) Alternatively, the CyQUANT cell proliferation assay was used to quantitate cell proliferation.
(§3) Alternatively, the CyQUANT cell proliferation assay was used to quantify tumor cell proliferation. Tumor cells were harvested with trypsin-EDTA, cells that excluded trypan blue were counted, added to 96-well plates and incubated overnight at 37° C. Drug was added to the wells following dilution in culture medium. Three days later the medium was removed and the plates frozen at −80° C. for at least 30 minutes.
MDA-MB-23 1 is a human breast adenocarcinoma, hormone-independent (HTB 26);

MDA-MB-435 = test: In vitro tumor cell proliferation, MDA-MB-435; type: cell-based; conditions: values given with an undefined *, read-out: In vitro Tumor Cell Proliferation (IC50, μM) Breast MDA-MB-435
Experimental: as §1, §2, §3

HT-29 = test: In vitro tumor cell proliferation, HT-29; type: cell-based, human; conditions: many values given with an undefined *, read-out: In vitro Tumor Cell Proliferation (IC50, μM) Colon HT-29
Experimental: as §1, §2, §3
HT-29 is a human colon adenocarcinoma, moderately well-differentiated grade II (HTB 38);

DMS-114 = test: In vitro tumor cell proliferation, DMS-114; type: cell-based, human; conditions: many values given with an undefined *, read-out: In vitro Tumor Cell Proliferation (IC50, μM) Lung DMS-114
Experimental: DMS-1 14: human small cell lung carcinoma;
as §1, §2, §3

DU145 = test: In vitro tumor cell proliferation, DU145; type: cell-based, human; conditions: many values given with an undefined *, read-out: In vitro Tumor Cell Proliferation (IC50, μM) Prostate DU145
Experimental: as §1, §2, §3

Colo-205 = test: In vitro tumor cell proliferation, Colo-205; type: cell-based; conditions: values given with an undefined *, read-out: In vitro Tumor Cell Proliferation (IC50, μM) Colon Colo-205
Experimental: as §1, §2, §3

A549 = test: In vitro tumor cell proliferation, A549; type: cell-based, human; conditions: many values given with an undefined *, read-out: In vitro Tumor Cell Proliferation (IC50, μM) Lung A549
Experimental: as §1, §2, §3

PC-3 = test: In vitro tumor cell proliferation, PC-3; type: cell-based, human; conditions: many values given with an undefined *, read-out: In vitro Tumor Cell Proliferation (IC50, μM) Prostate PC-3
Experimental: as §1, §2, §3

[1] = Homo sapiens, MDA-MB-231, MDA-MB-231
[2] = Homo sapiens, MDA-MB-435, MDA-MB-435
[3] = Homo sapiens, COLO 205, Colo-205

T2 sequence (P11802 whole entry): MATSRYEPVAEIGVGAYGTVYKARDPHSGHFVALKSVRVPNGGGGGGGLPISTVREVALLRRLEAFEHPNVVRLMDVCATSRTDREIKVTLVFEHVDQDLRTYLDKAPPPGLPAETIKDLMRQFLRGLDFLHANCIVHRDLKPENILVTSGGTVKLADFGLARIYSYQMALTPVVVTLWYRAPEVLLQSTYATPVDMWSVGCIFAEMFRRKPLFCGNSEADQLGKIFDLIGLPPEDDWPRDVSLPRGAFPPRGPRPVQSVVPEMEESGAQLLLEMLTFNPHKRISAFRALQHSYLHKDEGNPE
T2 sequence (P24385 whole entry partner): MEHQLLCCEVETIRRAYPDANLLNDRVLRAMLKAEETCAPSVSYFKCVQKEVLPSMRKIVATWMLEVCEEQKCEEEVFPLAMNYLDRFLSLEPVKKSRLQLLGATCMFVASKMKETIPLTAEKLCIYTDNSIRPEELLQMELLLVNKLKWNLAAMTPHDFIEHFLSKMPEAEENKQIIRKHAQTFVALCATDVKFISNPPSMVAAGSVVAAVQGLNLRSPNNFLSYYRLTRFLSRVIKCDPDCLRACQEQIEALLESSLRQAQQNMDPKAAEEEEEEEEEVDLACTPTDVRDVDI

SMILES	IC50 (cdk2/cyclin E)	IC50 (cdk4/cyclin D1)	IC50 (MDA-MB-231; [1]) [µM]	IC50 (MDA-MB-435; [2]) [µM]	IC50 (HT-29; HT-29, dihydrochloride)	IC50 (HT-29; Homo sapiens, HT-29, HT-29) [µM]	IC50 (DMS-114; DMS-114, dihydrochloride) [µM]	IC50 (DMS-114; Homo sapiens, DMS-114, DMS-114) [µM]	IC50 (DU145; Homo sapiens, DU-145, DU145) [µM]	IC50 (Colo-205; [3]) [µM]	IC50 (A549; Homo sapiens, A549, A549) [µM]	IC50 (PC-3; Homo sapiens, PC-3, PC-3) [µM]	further results
COc1ccc(CCNc2nc(N[C@H]3CC[C@H](N)CC3)nc3c2ncn3C2CCCC2)cc1 [Example 14, 2-[Trans-(4-aminocyclohexyl)amino]-6-[2-(4-methoxyphenyl)ethylamino]-9-cyclopentylpurine dihydrochloride]	0.1 µM	1.5 µM	3	–	–	2.7	–	1.3	2.8	2.4	1.4	2.3	–
N[C@H]1CC[C@H](Nc2nc(NNc3ccccc3Cl)c3ncn(C4CCCC4)c3n2)CC1 [Example 2, 2-[Trans-(4-aminocyclohexyl)amino]-6-(2-chlorophenylhydrazino)-9-cyclopentylpurine dihydrochloride]	0.12 µM and 0.1 µM	1.3 µM and 1 µM	–	8	2.5 µM and 4.1 µM	2.4	–	–	–	–	1.7	–	IC50 (MDA-MB-435; MDA-MB-435, dihydrochloride): 8.2 µM; IC50 (A549; A549, dihydrochloride): 2.2 µM and 1.8 µM
N[C@H]1CC[C@H](Nc2nc(NCC3CCC(CO)CC3)c3ncn(C4CCCC4)c3n2)CC1 (stereo partly drawn) [Example 10, 2-[Trans-(4-aminocyclohexyl)amino]-6-[4-(hydroxymethyl)cyclohexanemethylamino]-9-cyclopentylpurine dihydrochloride]	0.016 µM and 0.013 µM	1.6 µM	–	–	1.7 µM	1.6	1.4	1.5	1.3	1.3	1.3	1.1	IC50 (Colo-205; Colo-205, dihydrochloride): 2.6 µM; IC50 (A549; A549, dihydrochloride): 2.6 µM; IC50 (PC-3; PC-3, dihydrochloride): 1 µM; IC50 (DU145; DU145, dihydrochloride): 2.6 µM

The next lines start with results.

IC50 (cdk2/cyclin E)	IC50 (cdk4/cyclin D1)	IC50 (MDA-MB-231; [1]) [µM]	IC50 (MDA-MB-435; [2]) [µM]	IC50 (HT-29; HT-29, dihydrochloride)	IC50 (HT-29; Homo sapiens, HT-29, HT-29) [µM]	IC50 (DMS-114; DMS-114, dihydrochloride) [µM]	IC50 (DMS-114; Homo sapiens, DMS-114, DMS-114) [µM]	IC50 (DU145; Homo sapiens, DU-145, DU145) [µM]	IC50 (Colo-205; [3]) [µM]	IC50 (A549; Homo sapiens, A549, A549) [µM]	IC50 (PC-3; Homo sapiens, PC-3, PC-3) [µM]	SMILES	further results
0.055 µM and 0.03 µM	0.23 µM and 0.28 µM	4.7	9.2	6.3 µM	6.4	4.4	4.8	2.5	–	–	–	COCCNc1nc(N[C@H]2CC[C@H](N)CC2)nc2c1ncn2C1CCCC1 [Example 16, 2-[Trans-(4-aminocyclohexyl)amino]-6-(2-methoxyethylamino)-9-cyclopentylpurine dihydrochloride]	IC50 (MDA-MB-231; MDA-MB-231, dihydrochloride): 4.1 µM; IC50 (MDA-MB-435; MDA-MB-435, dihydrochloride): 7.6 µM; IC50 (DU145; DU145, dihydrochloride): 3.3 µM
1 µM	1.4 µM	–	–	–	–	–	–	–	–	–	–	CCN(CC)CCCNc1nc(N[C@H]2CC[C@H](N)CC2)nc2c1ncn2C1CCCC1 [Example 18, 2-[Trans-(4-aminocyclohexyl)amino]-6-[(3-diethylamino)propylamino]-9-cyclopentylpurine dihydrochloride]	–
1.4 µM	2.4 µM	–	–	–	–	–	–	–	–	–	–	COc1cccc(CNc2nc(N[C@H]3CC[C@H](N)CC3)nc3c2ncn3C(C)C)c1OC [Example 30, 2-[Trans-(4-aminocyclohexyl)amino]-6-[(2.3-dimethoxybenzyl)amino]-9-(2-propyl)purine dihydrochloride]	–
0.4 µM	0.1 µM	2.1	3.1	–	2.4	–	2.4	1.9	–	1.6	2.3	N[C@H]1CC[C@H](Nc2nc(NCCNc3ccccc3)c3ncn(C4CCCC4)c3n2)CC1 [Example 31, 2-[Trans-(4-aminocyclohexyl)amino]-6-[2-(phenylamino~ethylamino]-9-cyclopentylpurinetrihydrochloride]	IC50 (MDA-MB-231; MDA-MB-231, trihydrochloride): 2.4 µM; IC50 (MDA-MB-435; MDA-MB-435, trihydrochloride): 2.6 µM; IC50 (HT-29; HT-29, trihydrochloride): 2.5 µM; IC50 (A549; A549, trihydrochloride): 2.1 µM; IC50 (DMS-114; DMS-114, trihydrochloride): 1.8 µM; IC50 (PC-3; PC-3, trihydrochloride): 1.9 µM; IC50 (DU145; DU145, trihydrochloride): 1.8 µM
0.016 µM	0.04 µM	–	–	–	2.1	1.9	1.8	–	1.6	–	1.4	COCCOCCCNc1nc(N[C@H]2CC[C@H](N)CC2)nc2c1ncn2C1CCCC1 [Example 15, 2-[Trans-(4-aminocyclohexyl)amino]-6-[3-(2-methoxyethoxy)propylamino]-9-cyclopentylpurine dihydrochloride]	IC50 (Colo-205; Colo-205, dihydrochloride): 1.7 µM; IC50 (PC-3; PC-3, dihydrochloride): 1.2 µM
